This note sets out measurements from ChEMBL document CHEMBL5385849, “Discovery of 1-hydroxy-2-methylquinolin-4(1H)-one derivatives as new cytochrome bd oxidase inhibitors for tuberculosis therapy” (Eur J Med Chem, 2023).

By inhibition is commonly meant the share of the control response that was lost under treatment.

This assay has as its system Mycobacterium tuberculosis. Description: Inhibition of Mycobacterium tuberculosis harboring cydAB mutant inverted-membrane vesicle cytochrome bd oxidase assessed as reduction in oxygen consumption rate at 10 uM measured upto 4 days by Methylene blue dye based assay. It is filed as cell membranes. The note with it: time <= 4.0 day.

On to `Cc1c(Cc2ccc(OC(F)(F)F)cc2)c(=O)c2ccccc2n1O`, for which the inhibition worked out at 82%. The value for `CC(C)=CCC/C(C)=C/CC/C(C)=C/Cc1c(C)[nH]c2ccccc2c1=O` [AURACHIN D] was 55%.
